{"source": "patent US20220096515A1", "about": "“Methods and Formulations for Preventing Neurological or Psychiatric Disorders” (Huntington Medical Research Institutes, priority 2020, published 2022)", "key": {"[1]": {"system": "Gabrb3^ECKO endothelial cells", "assay": "qRT-PCR of periventricular endothelial cells after prenatal treatment", "assay_type": "in vivo, mouse", "experimental": "Primary culture of endothelial cells and endothelial cell staining: Embryonic brains were dissected under a stereo-microscope, after the NAD^+ treatment paradigm and the telencephalon was removed. Pial membranes were peeled off. Telencephalon without pial membranes from the periventricular region was pooled. Purity of endothelial cell cultures was established with endothelial cell markers and determined to be one hundred percent. Isolation and culture of endothelial cells were performed according to published methodology. Periventricular endothelial cells were prepared from CD1 (wild type), saline-treated Gabrb3^fl/fl, saline-treated Gabrb3^ECKO, and NAD^+-treated Gabrb3^ECKO embryos. Endothelial cells were labeled with anti-biotinylated isolectinB4 (1:100, Sigma), anti-GABA (1:400, Sigma), anti-DAXX (1:100, Santa Cruz Biotechnology) and anti-P2X4 (1:100, Abclonal) followed by secondary detection with AlexaFluor conjugates (Invitrogen). DAPI (Invitrogen) was used to label nuclei. Images were taken on an FSX100 microscope (Olympus). 1 million cells were examined for each immunohistochemistry condition.\nQuantitative real-time PCR: RT was performed by using iScript Reverse Transcription Supermix kit (Bio-Rad). PCR reactions were run on a CFX96 Touch Real Time PCR (Bio-Rad) with SsoAdvanced™ Universal SYBR® Green Supermix (Bio-Rad). Primers for qPCR (Daxx, P2x4, P2x7, P2y13, Tek, vwf, F2r, Sirt2, Nos1, Nrp1, Pax6, Gad1, Gad2, Grin2a, Trpm2, Trpc4 and Trpv6) were obtained from Thermo Fisher Scientific. The housekeeping gene Gapdh was used as a reference. The relative gene expression and subsequent fold changes among different samples were determined according to published methodology.\nTo gain mechanistic insights into NAD^+ action on endothelial cells, periventricular endothelial cells were isolated from saline-treated Gabrb3^fl/fl, saline-treated Gabrb3^ECKO, and NAD^+-treated Gabrb3^ECKO groups at the end of the treatment paradigm. […] GABA is synthesized from glutamate by Gad genes. […] The qRT-PCR gene expression levels followed a similar trend with that of the levels in the microarray data, reinforcing that the whole-tissue microarray was capable of highlighting some endothelial cells specific gene changes (FIGS. 10A-10I). […] Taken together, our results implicate NAD^+ as a critical modulator of angiogenesis in the embryonic forebrain."}, "[2]": {"system": "Gabrb3^ECKO cerebral cortex", "assay": "Adult (P90) cortex vessel densities and GABA cell counts after prenatal treatment", "assay_type": "in vivo, mouse", "experimental": "Histology, immunohistochemistry, and microscopic analysis: Paraffin immunohistochemistry (IHC) was performed on embryonic brains only while frozen section IHC was used on both embryonic and adult brains. Briefly, for paraffin IHC-E18 brains were fixed in zinc fixative (BD Biosciences PharMingen) for 24 h and processed for paraffin histology. Histological stainings with hematoxylin (Vector Laboratories) and eosin (Sigma) were performed on 8 μm coronal sections. Lectin histochemistry (with biotinylated isolectin B4, 1:50, Sigma) as well as IHC was performed on 20 μm sections. […]\nMorphometry: A stereological point grid was superimposed on digital images of biotinylated isolectin-B4+ vessels using ImageJ software. The ratio between points falling on blood vessels and on brain tissue was calculated for each section, and average values were obtained.\nCell counting: Profiles of GABA+ immunoreactive cells were counted in the prefrontal cortex (at bregma levels 1.5, 0.5 and −1.5) using stereotaxic coordinates from the atlas: The Mouse Brain in Stereotaxic Coordinates, by Paxinos and Franklin. For each area, cells in the strip of cortex from the pial surface to the white-gray matter interface were counted using ImageJ software and plotted. […]"}, "[3]": {"system": "CD1 derived endothelial cells, purified from the periventricular plexus", "assay": "Long-distance endothelial cell migration assay", "assay_type": "cell-based, mouse", "conditions": "vs untreated cells", "experimental": "In preparation for long-distance cell migration assays, square culture inserts (ibidi GmbH) were placed at one end of a 35 mm dish. Cultures of CD1 derived endothelial cells, purified from the periventricular plexus, were plated in the insert and allowed to migrate for 24 hours in endothelial cell culture medium. Endothelial cells were labeled with cell trace marker (CellLight Plasma Membrane-RFP, BacMam 2.0, Invitrogen) to visualize endothelial cell morphologies during subsequent imaging. The migration of endothelial cells from one end of the dish to the other spanning a distance of 3.5 cm was imaged and quantified.\nIn one experiment, periventricular endothelial cells were isolated from E15 wildtype (CD1) forebrain and tested the effect of NAD^+ addition in vitro. Exogenous addition of 100 μM NAD^+ was able to initiate significant endothelial cell proliferation within 2 days of culture and a 35 mm culture dish was confluent within 4-6 days (FIGS. 2A-2D). This was an interesting observation, since untreated periventricular endothelial cells take approximately 12 days to reach confluency in 35mm dishes, in our well-established culture conditions. […] Vital elements of angiogenesis include effective endothelial cell proliferation, migration, sprouting, alignment, tube formation and branching. […]"}, "[4]": {"conditions": "periventricular endothelial cells after prenatal treatment"}}}
{"smiles": "NC(=O)c1ccc[n+]([C@@H]2O[C@H](COP(=O)([O-])OP(=O)(O)OC[C@H]3O[C@@H](n4cnc5c(N)ncnc54)[C@H](O)[C@@H]3O)[C@@H](O)[C@H]2O)c1", "note": "[NAD^+]", "values": [{"measurement": "P2X7 and P2Y13 mRNA expression", "setting": "[1]; after NAD^+ treatment", "result": "rescue of P2X7 and P2Y13 mRNA expression"}, {"measurement": "Gad1 and Gad2 expression by qRT-PCR", "setting": "[1]; [4]", "result": "concurrently rescued"}, {"measurement": "calcium signaling genes (Grin2a, Trpm2, Trpc4, Trpv6) by qRT-PCR", "setting": "[1]; [4]", "result": "rescue of several calcium signaling genes"}, {"measurement": "expression of angiogenesis regulators (Tek, vWF, F2r, Sirt2, Nos1, Pax6) by qRT-PCR", "setting": "[1]; [4]", "result": "restored the expression of several critical regulators of angiogenesis"}, {"measurement": "GABAergic interneurons in adult cerebral cortex", "setting": "[2]", "result": "concurrent increase"}, {"measurement": "blood vessel densities in adult cerebral cortex", "setting": "[2]", "result": "concurrent increase"}, {"measurement": "long-distance migration of endothelial cells (cell number)", "setting": "[3]", "result": "robust long-distance migration"}]}
